Source: PubChem BioAssay (NCI)
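Following 48 hours of exposure in 96-well plates, responses at five concentrations were used to interpolate endpoints linearly. The concentration for full growth arrest is given as TGI.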

Tests used:
Assay in all cases: NCI-60 cell line screen, 48 h
[1] = tested on: A549 NSCLC
[2] = tested on: A498 renal
[3] = tested on: SF-539 CNS
[4] = tested on: EKVX NSCLC
[5] = tested on: MOLT-4 leukemia
[6] = tested on: SF-295 CNS
[7] = tested on: DLD-1 colon
[8] = tested on: CCRF-CEM leukemia
[9] = tested on: SR leukemia
[10] = tested on: U251 CNS
[11] = tested on: OVCAR-5 ovarian
[12] = tested on: K-562 leukemia
[13] = tested on: HOP-18 NSCLC
[14] = tested on: RPMI-8226 leukemia
[15] = tested on: NCI-H460 lung
[16] = tested on: ACHN renal
[17] = tested on: NCI-H522 lung
[18] = tested on: SNB-19 CNS
[19] = tested on: UACC-257 melanoma
[20] = tested on: IGROV1 ovarian
[21] = tested on: OVCAR-4 ovarian
[22] = tested on: UO-31 renal
[23] = tested on: SK-MEL-5 melanoma
[24] = tested on: SK-MEL-28 melanoma
[25] = tested on: HCT-116 colon
[26] = tested on: OVCAR-8 ovarian
[27] = tested on: HL-60(TB) leukemia
[28] = tested on: DMS 114 small cell lung
[29] = tested on: COLO 205 colon
[30] = tested on: SN12C renal
[31] = tested on: NCI-H226 lung
[32] = tested on: NCI-H23 lung
[33] = tested on: SNB-78 CNS
[34] = tested on: SF-268 CNS
[35] = tested on: UACC-62 melanoma
[36] = tested on: HT29 colon
[37] = tested on: SW-620 colon
[38] = tested on: M19-MEL melanoma
[39] = tested on: HCT-15 colon
[40] = tested on: KM20L2 colon
[41] = tested on: OVCAR-3 ovarian
[42] = tested on: SNB-75 CNS
[43] = tested on: MALME-3M melanoma
[44] = tested on: M14 melanoma
[45] = tested on: CAKI-1 renal
[46] = tested on: SK-MEL-2 melanoma
[47] = tested on: SK-OV-3 ovarian
[48] = tested on: LXFL 529 NSCLC
[49] = tested on: HOP-62 NSCLC
[50] = tested on: HCC-2998 colon
[51] = tested on: LOX IMVI melanoma
[52] = tested on: KM12 colon
[53] = tested on: DMS 273 small cell lung
[54] = tested on: RXF 393 renal
[55] = tested on: TK-10 renal
[56] = tested on: HOP-92 NSCLC
[57] = tested on: 786-0 renal

Measured: TGI

O=C(OCCOC(=O)c1ccc2c(c1)C1(SCCS1)c1ccccc1-2)c1ccc2c(c1)C1(SCCS1)c1ccccc1-2
> 100 µM: [1] | [2] | [3] | [4] | [5] | [6] | [7] | [8] | [9] | [10] | [11] | [12] | [13] | [14] | [15] | [16] | [17] | [18] | [19] | [20] | [21] | [22] | [23] | [24] | [25] | [26] | [27] | [28] | [29] | [30] | [31] | [32] | [33] | [34] | [35] | [36] | [37] | [38] | [39] | [40] | [41] | [42] | [43] | [44] | [45] | [46] | [47] | [48] | [49] | [50] | [51] | [52]

CCOC(=O)N1Cc2ccoc2C1
> 100 µM: [53] | [1] | [3] | [4] | [5] | [6] | [54] | [7] | [55] | [8] | [9] | [10] | [56] | [11] | [12] | [13] | [14] | [15] | [16] | [17] | [18] | [19] | [20] | [21] | [22] | [23] | [57] | [24] | [25] | [26] | [27] | [28] | [29] | [30] | [31] | [32] | [34] | [35] | [36] | [37] | [38] | [39] | [40] | [41] | [42] | [43] | [44] | [46] | [47] | [48] | [49] | [50] | [51] | [52]

NC1=NS(=O)(=O)Nc2nc(-c3ccc(Cl)cc3)[nH]c21
> 100 µM: [53] | [1] | [2] | [3] | [5] | [6] | [7] | [55] | [8] | [9] | [10] | [56] | [11] | [12] | [13] | [14] | [15] | [16] | [17] | [18] | [20] | [21] | [22] | [23] | [57] | [24] | [25] | [26] | [27] | [28] | [29] | [30] | [32] | [34] | [35] | [36] | [37] | [38] | [39] | [40] | [41] | [42] | [43] | [44] | [45] | [46] | [47] | [48] | [49] | [50] | [51] | [52]
